From patent publication US11584710B2, “Compounds for treating infections” (HORITZONTS TECNOLOGICS HUNGARY KORLÁTOLT FELELOSSÉGU …, priority 2017, dated 2023)

Tests used:
C. difficile = assay: Kirby-Bauer disk diffusion susceptibility test; type: cell-based; conditions: 300 μg/disc
Protocol: (§1) Bacterial strains, from clinical origin, were supplied by the National Center for Microbiology, Institute of Health Carlos III (Majadahonda, Madrid). They are detailed in Table 1.
(§2) Bacterial cells suspension in sterile saline was prepared from a culture of 24-72 h, depending on bacterial species, in Mueller-Hinton Agar with 5% sheep blood. Each suspension was adjusted to a fixed size inoculum of 1-5×10^8 CFU/ml with a spectrophotometer (Ferraro, MJ National Committee for Clinical Laboratory Standards. 2000).
(§3) Kirby-Bauer disk diffusion susceptibility test protocol was utilized to determine the sensitivity or resistance of pathogenic bacteria against the compounds and others antibiotics. The absence of growth around the disks is an indirect measure of the ability of this compound to inhibit an organism (Kirby, W., et al., Antibiotics Annu. 1956-1957:892). After 18 to 72 hours of incubation at 37° C., with or without CO2, under aerobic or anaerobic conditions, depending on the bacterial species, halo of growth inhibition were obtained and evaluated.
(§4) Interpretation of susceptibility and resistance was based on the presence or absence of a zone of inhibition surrounding the disk. Kirby-Bauer disk diffusion susceptibility test is a common method which uses antibiotic-impregnated wafers to test whether bacteria are affected by antibiotics. The size of the zone of inhibition depends on how effective the antibiotic is at stopping the growth of the bacterium. A stronger antibiotic will create a larger zone, because a lower concentration of the antibiotic is enough to stop growth.
(§5) All compounds were tested at 300 μg/disc.

K. pneumoniae = assay: Kirby-Bauer disk diffusion susceptibility test; type: cell-based; conditions: 300 μg/disc
Protocol: as §1, §2, §3, §4, §5

N. carnea = assay: Kirby-Bauer disk diffusion susceptibility test; type: cell-based; conditions: 300 μg/disc
Protocol: as §1, §2, §3, §4, §5

N. cyriacigeorgica = assay: Kirby-Bauer disk diffusion susceptibility test; type: cell-based; conditions: 300 μg/disc
Protocol: as §1, §2, §3, §4, §5

S. pneumoniae = assay: Kirby-Bauer disk diffusion susceptibility test; type: cell-based; conditions: 300 μg/disc
Protocol: as §1, §2, §3, §4, §5

S. pyogenes = assay: Kirby-Bauer disk diffusion susceptibility test; type: cell-based; conditions: 300 μg/disc
Protocol: as §1, §2, §3, §4, §5

T. pulmonis = assay: Kirby-Bauer disk diffusion susceptibility test; type: cell-based; conditions: 300 μg/disc
Protocol: as §1, §2, §3, §4, §5

C. albicans [1] = tested on: C. albicans; parameters: key: I = intermediate activity; S = susceptibility; R = Resistance; conditions: C. albicans clinical strain; cited from earlier work
C. glabrata = tested on: C. glabrata; parameters: key: I = intermediate activity; S = susceptibility; R = Resistance; conditions: C. glabrata clinical strain; cited from earlier work
C. tropicalis [2] = tested on: C. tropicalis; parameters: key: I = intermediate activity; S = susceptibility; R = Resistance; conditions: C. tropicalis clinical strain; cited from earlier work
C. parapsilosis [3] = tested on: C. parapsilosis; parameters: key: I = intermediate activity; S = susceptibility; R = Resistance; conditions: C. parapsilosis clinical strain; cited from earlier work
C. lusitaniae [4] = tested on: C. lusitaniae; parameters: key: I = intermediate activity; S = susceptibility; R = Resistance; conditions: C. lusitaniae clinical strain; cited from earlier work
C. Krusei = tested on: C. Krusei; parameters: key: I = intermediate activity; S = susceptibility; R = Resistance; conditions: C. Krusei clinical strain; cited from earlier work
C. guillermondii [5] = tested on: C. guillermondii; parameters: key: I = intermediate activity; S = susceptibility; R = Resistance; conditions: C. guillermondii clinical strain; cited from earlier work
A. fumigatus [6] = tested on: A. fumigatus; parameters: key: I = intermediate activity; S = susceptibility; R = Resistance; conditions: A. fumigatus clinical strain; cited from earlier work
A. niger [7] = tested on: A. niger; parameters: key: I = intermediate activity; S = susceptibility; R = Resistance; conditions: A. niger clinical strain; cited from earlier work
A. terreus [8] = tested on: A. terreus; parameters: key: I = intermediate activity; S = susceptibility; R = Resistance; conditions: A. terreus clinical strain; cited from earlier work
A. flavus [9] = tested on: A. flavus; parameters: key: I = intermediate activity; S = susceptibility; R = Resistance; conditions: A. flavus clinical strain; cited from earlier work
S. cerevisiae [10] = tested on: S. cerevisiae; parameters: key: I = intermediate activity; S = susceptibility; R = Resistance; conditions: S. cerevisiae clinical strain; cited from earlier work
A. flavus [11] = assay: Antifungal disk diffusion susceptibility test (CLSI M44); type: cell-based; conditions: Aspergillus flavus, read-out: Activity (mm)
Protocol: (§6) Filamentous fungi and yeasts strains, from clinical origin, were supplied by Microbiology Service from The Princess Hospital, Madrid. They are detailed in Table IX.
(§7) Filamentous fungi and yeast cells suspensions in distilled water was prepared from a culture of 24-48 h, depending on species, in Sabouraud agar. Each suspension was adjusted to a fixed size inoculum of 1-5×10^8 CFU/ml with a spectrophotometer (Ferraro, MJ National Committee for Clinical Laboratory Standards. 2000).
(§8) Antifungal susceptibility tests were developed following the standardized methodology detailed in document CLSI: M44-4: Method for Antifungal Disk diffusion susceptibility testing of yeasts consisting of disk diffusion on agar Muller-Hinton (supplemented with 2% glucose).

A. fumigatus [12] = assay: as above; type: cell-based; conditions: Aspergillus fumigatus, read-out: Activity (mm)
Protocol: as §6, §7, §8

A. niger [13] = assay: as above; type: cell-based; conditions: Aspergillus niger, read-out: Activity (mm)
Protocol: as §6, §7, §8

A. terreus [14] = assay: as above; type: cell-based; conditions: Aspergillus terreus, read-out: Activity (mm)
Protocol: as §6, §7, §8

C. albicans [15] = assay: as above; type: cell-based; conditions: Candida albicans, read-out: Activity (mm)
Protocol: as §6, §7, §8

C. guillermondii [16] = assay: as above; type: cell-based; conditions: read-out: Activity (mm)
Protocol: as §6, §7, §8

C. lusitaniae [17] = assay: as above; type: cell-based; conditions: Clavispora lusitaniae, read-out: Activity (mm)
Protocol: as §6, §7, §8

C. parapsilosis [18] = assay: as above; type: cell-based; conditions: Lodderomyces parapsilosis, read-out: Activity (mm)
Protocol: as §6, §7, §8

C. tropicalis [19] = assay: as above; type: cell-based; conditions: Candida tropicalis, read-out: Activity (mm)
Protocol: as §6, §7, §8

S. cerevisiae [20] = assay: as above; type: cell-based; conditions: Saccharomyces cerevisiae, read-out: Activity (mm)
Protocol: as §6, §7, §8

Compound	Susceptibility of the strain (C. albicans [1])	Susceptibility of the strain (C. glabrata)	Susceptibility of the strain (C. tropicalis [2])	Susceptibility of the strain (C. parapsilosis [3])	Susceptibility of the strain (C. lusitaniae [4])	Susceptibility of the strain (C. Krusei)	Susceptibility of the strain (C. guillermondii [5])	Susceptibility of the strain (A. fumigatus [6])	Susceptibility of the strain (A. niger [7])	Susceptibility of the strain (A. terreus [8])	Susceptibility of the strain (A. flavus [9])	Susceptibility of the strain (S. cerevisiae [10])	further results
NNC(=O)C(=O)NOc1ccccc1 [MSG-196]													Activity detected (mm) (C. difficile): 18 mm; Activity detected (mm) (K. pneumoniae): 13 mm; Activity detected (mm) (N. carnea): 30 mm; Activity detected (mm) (N. cyriacigeorgica): 34 mm; Activity detected (mm) (S. pneumoniae): 20 mm; Activity detected (mm) (S. pyogenes): 20 mm; Activity detected (mm) (T. pulmonis): 22 mm
C[C@@H]1[C@H](O)[C@@H](C)/C=C/C=C/C=C/C=C/C=C/C=C/C=C/[C@H](O[C@@H]2O[C@H](C)[C@@H](O)[C@H](N)[C@@H]2O)C[C@@H]2O[C@](O)(C[C@@H](O)C[C@@H](O)[C@H](O)CC[C@@H](O)C[C@@H](O)CC(=O)O[C@H]1C)C[C@H](O)[C@H]2C(=O)O [Amphotericin B]	I	S	S	S	I	I	R	S	S	I	I	I	
CC(=O)N1CCN(c2ccc(OCC3COC(Cn4ccnc4)(c4ccc(Cl)cc4Cl)O3)cc2)CC1 (centres unmarked) [Ket, ketoconazole]	S	S	S	S	S	S	R	S	S	S	S	S	zone of inhibition at 50 µg/disc (A. flavus [11]): 32 mm; zone of inhibition at 50 µg/disc (A. fumigatus [12]): 22 mm; zone of inhibition at 50 µg/disc (A. niger [13]): 25 mm; zone of inhibition at 50 µg/disc (A. terreus [14]): 26 mm; zone of inhibition at 50 µg/disc (C. albicans [15]): 22 mm; zone of inhibition at 50 µg/disc (C. guillermondii [16]): 44 mm; zone of inhibition at 50 µg/disc (C. lusitaniae [17]): 41 mm; zone of inhibition at 50 µg/disc (C. parapsilosis [18]): 42 mm; zone of inhibition at 50 µg/disc (C. tropicalis [19]): 25 mm; zone of inhibition at 50 µg/disc (S. cerevisiae [20]): 30 mm
